Test results taken from patent US20110045101A1, “FUNGICIDAL SUBSTITUTED AZOLES” (E.I. Du Pont De Nemours and Company, priority 2009, published 2011).
Marks after values point to notes of the source that are not given here.

What was measured:
Type in all cases: in vivo
Conditions in all cases: 100 = 100% disease control
[1] = test system: Botrytis cinerea; assay: Test C: tomato Botrytis on tomato seedlings, sprayed the day before inoculation, visual disease rating
Outline: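 Spray to run-off on tomato seedlings; test conc. 200 ppm (≈500 g/ha), some entries 40 ppm. Formulation: acetone 3% of final vol., then acetone/water 50:50 + 250 ppm polyhydric alcohol ester surfactant.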

[2] = test system: Alternaria solani; assay: Test D: tomato early blight, sprayed the day before inoculation, visual disease rating
Outline: (§1)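 Spray suspension: acetone 3% of final volume, then 50/50 acetone/water plus 250 ppm Trem® 014. Applied to run-off on seedlings at 200 ppm (≈500 g/ha); starred entries tested at 40 ppm.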

[3] = test system: Septoria nodorum; assay: Test F: wheat glume blotch on wheat seedlings, sprayed the day before inoculation, visual disease rating
Outline: as §1

[4] = test system: Septoria tritici; assay: Test G: wheat leaf blotch on wheat seedlings, sprayed the day before inoculation, visual disease rating
Outline: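 Visual disease ratings taken 19 days after transfer to a 20° C growth chamber, following 48 h in saturated atmosphere at 24° C. Seedlings had been sprayed to run-off one day before spore inoculation. Dose 200 ppm, or 40 ppm where starred.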

[5] = test system: Puccinia recondita f. sp. tritici; assay: Test H: wheat leaf rust, test suspension sprayed after inoculation of wheat seedlings, visual disease rating
Outline: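 Wheat seedlings inoculated with P. recondita spores, held 24 h saturated at 20 °C, then 2 days in growth chamber at 20 °C; compound suspension (acetone/water with Trem 014) sprayed to run-off afterwards. Rated visually; 200 ppm (≈500 g/ha) unless marked *, which denotes 40 ppm.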

[6] = test system: Puccinia recondita f. sp. tritici; assay: Test I: wheat leaf rust on wheat seedlings, sprayed the day before inoculation, visual disease rating
Outline: as §1

[7] = test system: Erysiphe graminis f. sp. tritici; assay: Test J: wheat powdery mildew on wheat seedlings, sprayed the day before inoculation, visual disease rating
Outline: as §1

[8] = 200 ppm, 0 = no control relative to controls

SMILES	Test C disease control rating [1, 8] [%]	Test D disease control rating [2, 8] [%]	Test F disease control rating [3, 8] [%]	Test G disease control rating [4, 8] [%]	Test H disease control rating [5, 8] [%]	Test I disease control rating [6, 8] [%]	Test J disease control rating [7, 8] [%]	also measured
Fc1cc(-n2cnc(Br)c2-c2c(F)ccc(F)c2Cl)ccc1Cl [compound 409]	100	9	0	100	0	96	98	
Fc1cccc(F)c1-c1c(Cl)nc(Br)n1-c1ccc(Cl)nc1 [compound 711]	100	100	99	99	98	99	99	
COc1ccc(-c2c(Cl)nc(Cl)n2-c2ccc(Cl)c(F)c2)cn1 [compound 434]	96	9	0	99	0	68	76	
Cc1ccc(-n2c(C)nc(Cl)c2-c2c(F)cc(O)cc2F)cc1 [Compound 624, 4-[4-chloro-2-methyl-1-(4-methylphenyl)-1H-imidazol-5-yl]-3,5-difluorophenol]								pest or weed control at 200 ppm ([1]; Botrytis cinerea, 120 h, 200 ppm, 0 = no control relative to controls): 99%; pest or weed control at 200 ppm ([2]; Alternaria solani, 168 h, 200 ppm, 0 = no control relative to controls): 64%; pest or weed control at 200 ppm ([3]; Parastagonospora nodorum, 264 h, 200 ppm, 0 = no control relative to controls): 0%; pest or weed control at 200 ppm ([4]; Zymoseptoria tritici, 504 h, 200 ppm, 0 = no control relative to controls): 94%; pest or weed control at 200 ppm ([5]; Puccinia recondita, 96 h, 200 ppm, 0 = no control relative to controls): 0%; pest or weed control at 200 ppm ([6]; Puccinia recondita, 168 h, 200 ppm, 0 = no control relative to controls): 99%; pest or weed control at 200 ppm ([7]; Blumeria graminis, 168 h, 200 ppm, 0 = no control relative to controls): 90%
Cc1ncc(Cc2ccc(F)cc2F)n1-c1ccc(Cl)cc1 [compound 403]	99	0	0	97	0	77	86	
CNc1nc(Cl)c(-c2c(F)cc(OC)cc2F)n1-c1ccc(Cl)cc1 [compound 692]	100	70	0	99	8	0	79	
Cc1cccc(-c2c(CCl)nc(Cl)n2-c2ccc(Cl)c(F)c2)n1 [compound 379]	99	0	0	86	0	27	0	
Fc1cc(-n2c(Cl)nc(Cl)c2-c2ccc(Br)cn2)ccc1Cl [compound 487]	96	0	0	88	0	78	0	
CCc1ccc(-n2c(C)nc(Cl)c2-c2c(F)ccc(OC)c2F)cc1 [compound 479]	100	100	95	94	0	99	100	
COc1ccc(F)c(-c2c(Cl)nc(Cl)n2-c2ccc(Cl)cc2)c1Cl [compound 481]	100	100	99	95	0	97	100	
COc1ccc(F)c(-c2c(Cl)ncn2-c2cccc(C)c2)c1F [compound 300]	99	98	0	91	48	97	99	
COc1cc(F)c(-n2cnc(C)c2-c2ccc(Cl)cc2)c(F)c1 [compound 688]								Test C disease control rating ([1]; 40 ppm (marked *)): 100* %; Test D disease control rating ([2]; 40 ppm (marked *)): 33* %; Test F disease control rating ([3]; 40 ppm (marked *)): 0* %; Test G disease control rating ([4]; 40 ppm (marked *)): 97* %; Test H disease control rating ([5]; 40 ppm (marked *)): 8* %; Test I disease control rating ([6]; 40 ppm (marked *)): 0* %; Test J disease control rating ([7]; 40 ppm (marked *)): 78* %
COc1cc(F)c(-c2c(Cl)nc(Br)n2-c2ccc(OC)nc2)c(F)c1 [compound 705]	99	100	99	99	100	100	100	
COc1ccc(F)c(-c2c(Cl)ncn2-c2ccc(F)cc2)c1F [compound 299]	99	99	90	97	0	99	99	
COc1cc(F)c(-c2c(N(C)C)ncn2Cc2ccc(C)cc2)c(F)c1 [compound 275]								Test C disease control rating ([1]; 200 ppm, 0 = no control): 100%; Test D disease control rating ([2]; 200 ppm, 0 = no control): 82%; Test F disease control rating ([3]; 200 ppm, 0 = no control): 0%; Test G disease control rating ([4]; 200 ppm, 0 = no control): 85%; Test H disease control rating ([5]; 200 ppm, 0 = no control): 9%; Test I disease control rating ([6]; 200 ppm, 0 = no control): 74%; Test J disease control rating ([7]; 200 ppm, 0 = no control): 0%
COc1ccc(F)c(-c2c(Cl)nc(Cl)n2-c2ccc(Cl)c(F)c2)c1F [compound 392]	100	100	100	97	60	99	100	
COc1cc(F)c(-n2c(Cl)nc(CCl)c2-c2ccc(C)cc2)c(F)c1 [compound 581]								Test C disease control rating ([1]; 40 ppm (marked *)): 99* %; Test D disease control rating ([2]; 40 ppm (marked *)): 33* %; Test F disease control rating ([3]; 40 ppm (marked *)): 0* %; Test G disease control rating ([4]; 40 ppm (marked *)): 96* %; Test H disease control rating ([5]; 40 ppm (marked *)): 84* %; Test I disease control rating ([6]; 40 ppm (marked *)): 98* %; Test J disease control rating ([7]; 40 ppm (marked *)): 21* %
COc1cc(F)c(-n2cnc(C)c2-c2cccc(F)c2)c(F)c1 [compound 683]								Test C disease control rating ([1]; 40 ppm (marked *)): 100* %; Test D disease control rating ([2]; 40 ppm (marked *)): 97* %; Test F disease control rating ([3]; 40 ppm (marked *)): 0* %; Test G disease control rating ([4]; 40 ppm (marked *)): 67* %; Test H disease control rating ([5]; 40 ppm (marked *)): 8* %; Test I disease control rating ([6]; 40 ppm (marked *)): 0* %; Test J disease control rating ([7]; 40 ppm (marked *)): 98* %
